According to patent publication US9198907B2, “Combinations of a HCV inhibitor such as bicyclic pyrrole derivatives and a therapeutic agent” (PTC Therapeutics, Inc., priority 2009, dated 2015):

Test system: HCV replicon RNA in replicon cells
Assay: Replicon RNA response to antiviral agent(s), replicon RNA level by real time PCR (Taqman assay)
Format: cell-based
Procedure: Replicon cells were seeded at ˜5000 cells/well in 96-well collagen I-coated Biocoat plates (Becton Dickinson). At 24 hrs post-seeding, a series of replicon cells were treated with a HCV protease inhibitor and a HCV inhibitor. The final concentration of DMSO was 0.5%, fetal bovine serum was 10%, and G418 (an aminoglycoside used as a selective agent) was 500 μg/mL.
To each concentration of Compound 10p, HCV inhibitor Compound 22 was titrated. After 3 days, the cells were washed with PBS and lysed in 1× Cell Lysis Buffer (Ambion cat #8721).
The replicon RNA level was measured using real time PCR (Taqman assay). The ampicon was located in NS5b. The PCR primers used were: 5B.2F, ATGGACAGGCGCCCTGA (SEQ ID NO: 1); 5B.2R, […] (SEQ ID NO: 2); the probe sequence was FAM-labeled CACGCCATGCGCTGCGG (SEQ ID NO: 3). GAPDH RNA was used as endogenous control and was amplified in the same reaction as NS5b (multiplex PCR) using primers and VIC-labeled probe recommended by the manufacturer (PE Applied Biosystem). The real-time RT-PCR reactions were run on ABI PRISM 7900HT Sequence Detection System using the following program: 48° C. for 30 min, 95° C. for 10 min, 40 cycles of 95° C. for 15 sec, 60° C. for 1 min. The ΔCT values (CT5B-CTGAPDH) were plotted against test compound concentration and fitted to the sigmoid dose response model using Graphpad PRISM software (Graphpad Software Inc.). The half maximal inhibitory concentration (IC50) is the concentration necessary to achieve ΔCT=1 over the projected baseline. The 90% maximal inhibitory concentration (IC90) is the concentration necessary to achieve ΔCT=3.2 over the baseline. Alternatively, to quantitate the absolute amount of replicon RNA, a standard curve was established by including serially diluted T7 transcripts of replicon RNA in the Taqman assay. All Taqman reagents were from PE Applied Biosystem.

Row | SMILES | relative inhibition (logarithmic scale) of replicon RNA (Cpd 10p 0.15 μM, Compound 22 0 μM, replicon cells treated 3 days) | relative inhibition (logarithmic scale) of replicon RNA (Cpd 10p 1.2 μM, Compound 22 0 μM, replicon cells treated 3 days) | relative inhibition (logarithmic scale) of replicon RNA (combination: Compound 22 0.045 μM + Cpd 10p 0.15 μM, 3 days) | relative inhibition (logarithmic scale) of replicon RNA (combination: Compound 22 0.045 μM + Cpd 10p 1.2 μM, 3 days) | relative inhibition (logarithmic scale) of replicon RNA (combination: Compound 22 0.405 μM + Cpd 10p 0.15 μM, 3 days) | relative inhibition (logarithmic scale) of replicon RNA (combination: Compound 22 0.405 μM + Cpd 10p 1.2 μM, 3 days)
1 | CC(C)(C)NC(=O)N[C@H](C(=O)N1C[C@H]2[C@@H]([C@H]1C(=O)NC(CC1CCC1)C(=O)C(N)=O)C2(C)C)C(C)(C)C (stereo partly drawn) [Cpd 10p, (1R,2S,5S)-N-(4-amino-1-cyclobutyl-3,4-dioxobutan-2-yl)-3-((S)-2-(3-tert-butylureido)-3,3-dimethylbutanoyl)-6,6-dimethyl-3-azabicyclo[3.1.0]hexane-2-carboxamide, reference compound] | −0.74 | −1.72 | – | – | – | –
2 | COc1cnc2c(c1)c(C#N)c(-c1ccc(S(=O)(=O)N[C@@H](C)C(F)(F)F)cn1)n2C1CCC1 [Cpd 22, 6-(3-cyano-1-cyclobutyl-5-methoxy-1H-pyrrolo[2,3-b]pyridin-2-yl)-N-[(2S)-1,1,1-trifluoropropan-2-yl]pyridine-3-sulfonamide] | – | – | −1.09 | −1.77 | −1.45 | −1.91
